The values below come from patent US11255843B2, “Compositions and methods for identifying metabolically active agents” (Northwestern University, priority 2016, dated 2022).

One test deals with Bmal1−/− Beta TC-6 cells. The test can be described thus: High throughput insulin-NanoLuc screen for drugs that restore glucose-stimulated insulin secretion. The class given is cell-based, mouse. To be noted: 10 uM compound + 20 mM glucose, 1 hr. As to the method: A high throughput screen was used to identify small molecule drugs capable of restoring glucose-stimulated insulin secretion in clock-deficient beta cells. Bmal1^−/− beta cells and primary islets display reduced glucose-stimulated insulin secretion (GSIS) and that agonists of Gq-coupled muscarinic receptor and diacyl glycerol (DAG) signaling rescue secretion to that of wild type cells. Compounds to augment GSIS in Bmal1^−/− cells were identified by adding compounds in combination with 20 mM glucose and using the DAG mimetic Phorbol 12-myristate 13-acetate (PMA), which rescues GSIS in these cells, as a positive control. The spectrum collection small molecule compound library (MicroSource Discovery Systems, Inc) consisting of 2700 known drugs and drug-like molecules was screened for compounds that augment insulin secretion in Bmal1^−/− Beta TC-6 cells. Insulin Nanoluc expressing Bmal1^−/− Beta TC-6 cells (30,000 cells/well) were plated in 384 well plates and cultured for 4 days at 37° C. with 5% CO2. Prior to the assay, cells were washed once with KRB buffer containing 0 mM glucose and starved in glucose-free KRB buffer for 1 hour. After aspirating, KRB buffer containing 20 mM glucose in addition to small molecules (10 uM) were added, and the cells were incubated for 1 hour. As a negative control, 16 wells received only 20 mM glucose, which fails to elicit insulin secretion in Bmal1^−/− cells, and an additional 16 wells received KRB buffer containing 20 mM glucose and 10 μM PMA, which is known to induce insulin secretion in Bmal1^−/− mouse islets and Beta TC-6 cells. After 1 hour, the supernatant was collected and centrifuged at 500G for 30 min. The supernatant was transferred into a fresh 384-well assay plate containing Nano-Glo Luciferase Assay Substrate (Promega) and luciferase intensity was measured by EnSpire Plate Reader (PerkinElmer) Intensity was measured within 30 minutes.
Z scores for luciferase intensities produced by screened compounds were calculated from the following formula: z=(X−μ)/σ where z is the z-score, X is intensity of compounds, μ is the intensity of negative control (20 mM glucose), and σ is the standard deviation of negative control. Hit compounds were defined as those that elicited a response of more than 3 standard deviations from the mean (Z score>3). Hit Compounds
The Spectrum Collection small molecule compound library (MicroSource Discovery Systems, Inc), which consists of 2700 known drugs and drug-like molecules, was screened for compounds that augment insulin secretion in Bmal1^−/− Beta TC-6 cells. Insulin Nanoluc-expressing Bmal1^−/− Beta TC-6 cells (30,000 cells/well) were placed into 384 well plates and cultured for 4 days at 37° C. and 5% CO2. The cells were washed once and starved in KRB buffer containing 0 mM glucose for 1 hr. After removing the KRB, KRB buffer containing 20 mM glucose in addition to the small molecules (10 uM) were added, and the cells were incubated for 1 hr. As a negative control, 16 wells received KRB buffer with only 20 mM glucose, which fails to elicit insulin secretion in Bmal1^−/− cells, and as a positive control, 16 wells received KRB buffer containing 20 mM glucose and 10 μM PMA, which is known to induce insulin secretion in both Bmal1^−/− mouse islets and Beta TC-6 cells. After 1 hr, the supernatant was collected and centrifuged at 500 g for 30 min. The supernatant was transferred into a fresh 384-well assay plate containing Nano-Glo Luciferase Assay Substrate (Promega), and luciferase intensity was measured by EnSpire Plate Reader (PerkinElmer) within 30 minutes.
Z scores for luciferase intensities produced by screened compounds were calculated from the following formula: z=(X−μ)/σ (where z is the Z score, X is the intensity of the compounds, μ is the intensity of negative control (20 mM glucose), and a is the standard deviation of negative control). A row-based correction factor was applied to all luciferase readings to adjust for logarithmic signal decay. […]

Test [1] has as its system wild-type βTC-6 cells. The test can be described thus: Glucose-stimulated insulin secretion assay in Beta TC-6 cells (ELISA). The class given is cell-based, mouse. To be noted: for effect on glucose-stimulated insulin secretion and calcium flux (validation of hits): hit compounds at 10 and 100 μM, 0 or 20 mM glucose. As to the method:
Beta TC-6 cells (300,000 cells/well) were seeded into poly-L-lysine-coated 24 well plates and cultured for 48-72 hrs at 37° C. and 5% CO2. The cells were washed once and incubated in KRB buffer containing 0 mM glucose for 1 hr. Cells were then treated for 1 hr with KRB buffer containing 0 or 20 mM glucose in the presence of hit compounds (including ivermectin, alexidine, and tomatine at final concentrations of 10 and 100 μM) or an equivalent volume of DMSO as a vehicle control. Supernatants were then collected and centrifuged at 500G for 30 min and assayed for insulin content by ELISA (Crystal Chem Inc). Cell lysates were harvested in acid-ethanol solution (0.18M HCl in 70% Ethanol), sonicated, and solubilized overnight at 4° C. before assaying total insulin content by ELISA. For insulin secretion assays following prolonged ivermectin treatment, cells were first treated with 10 μm ivermectin for 24 hrs prior to the 1 hr incubation with 0 mM glucose KRB buffer.

The test system of test [2] is wild-type βTC-6 cells. The test can be described thus: Calcium flux (Fura-2) after exposure to glucose and compound. The class given is cell-based, mouse. To be noted: ivermectin 10 μM with glucose. As to the method:
BetaTC-6 cells were plated at a density of 100,000 cells per well in black 96-well plates with clear bottoms and cultured overnight at 37° C. and 5% CO2. Cells were then washed with BSA-free KRB buffer with no glucose and loaded with 5 μM Fura-2 (Invitrogen) and 0.04% Pluronic F-127 (Invitrogen) for 30 min at 37° C. Following a wash with BSA-free KRB, Fura-2 intensity was measured following injection of either glucose alone or indicated compounds. Cells were alternately excited with 340 nm and 380 nm wavelength light, and the emitted light was detected at 510 nm using a Cytation 3 Cell Imaging Multi-Mode Reader (Bio Tek) at sequential 30-second intervals. Raw fluorescence data were exported to Microsoft Excel and expressed as the 340/380 ratio for each well.
On the technique in general: Calcium flux is commonly read through the fluorescence of an indicator in the cells.

In the next test the test system is Beta-TC6 cells. The test can be described thus: Intracellular calcium determination with Fura2-AM dye. The class given is cell-based, mouse. Conditions: Fura2-AM ratiometric, 10 μM ionomycin. The method, then: BetaTC-6 cells were plated at a density of 100,000 cells per well in black 96-well plates with clear bottoms and cultured overnight at 37° C. and 5% CO2. Islets were dispersed to single cells by incubating in 0.05% Trypsin-EDTA at 37° C. for 3 min and plated at a density of 100 islets per well in laminin-treated black 96-well plates with clear bottoms and cultured in complete media for 48 hours at 37° C. and 5% CO2. Cells were then washed with BSA-free KRB buffer with no glucose and loaded with 5 μM Fura-2 (Invitrogen) and 0.04% Pluronic F-127 (Invitrogen) for 30 min at 37° C. Following a wash with BSA-free KRB, Fura-2 intensity was measured after injection of either glucose or ionomycin (Sigma) to final concentrations of 20 mM or 10 μM, respectively. Cells were alternately excited with 340- and 380-nm light, and the emitted light was detected at 510 nm using a Cytation 3 Cell Imaging Multi-Mode Reader (Bio Tek) at sequential 30-s intervals. Raw fluorescence data were exported to Microsoft Excel and expressed as the 340/380 ratio for each well.

Test [3] concerns PdxCreER;Bmal1flx/flx islets. The test can be described thus: Static insulin secretion assay in islets isolated from tamoxifen-treated PdxCreER;Bmal1flx/flx mice (ELISA). It is filed as cell-based, mouse. To be noted: islets from tamoxifen-treated mutant vs control mice, stimulated 1 hour; 1 mM carbachol, 10 μM PMA, 10 μM ionomycin, 2.5 μM forskolin, 1 mM 8-Br-cAMP. As to the method: Mouse pancreatic islets were isolated via bile duct collagenase digestion (Collagenase P, Sigma) and Ficoll gradient separation and left to recover overnight (16 hours) at 37° C. in RPMI 1640 with 10% fetal bovine serum (FBS), 1% 1-glutamine, and 1% penicillin/streptomycin. For standard insulin release assays, five islets were statically incubated in Krebs-Ringer buffer (KRB) and stimulated for 1 hour at 37° C. with various glucose concentrations, 30 mM KCl, 2.5 μM forskolin, 1 mM 8-Br-cAMP, 10 mM 1-leucine+2 mM 1-glutamine, 1 mM carbachol, 10 μM PMA, or 10 μM ionomycin. Supernatant was collected and assayed for insulin content by enzyme-linked immunosorbent assay (ELISA; Crystal Chem Inc.). Islets were then sonicated in acid-ethanol solution and solubilized overnight at 4° C. before assaying total insulin content by ELISA. For rhythmic insulin release assays, islets were first synchronized with 10 μM forskolin (Sigma) for 1 hour and allowed to recover for 16 hours. Insulin secretion assays were then performed as above in individual groups of five islets every 4 hours for 72 hours (FIG. 5A). Human islets (obtained from IIDP) were cultured in RPMI 1640 with 10% human AB serum, 1% 1-glutamine, and 1% penicillin/streptomycin (see table in FIG. S4A for details of sex, age, BMI, and IIDP ID numbers of the three donors). For the rhythmic analysis of RNAs in murine and human islets, RNA was isolated (described below) in groups of 200 islets every 4 hours for 48 or 24 hours, respectively, starting 40 hours after forskolin synchronization (FIG. 5A).
For in vivo delivery of tamoxifen (Sigma, dissolved in corn oil), mice received three intraperitoneal (i.p.) injections of 200 μg tamoxifen/g body weight, administered every other day. Subsequent experiments were conducted 10 to 14 days after tamoxifen treatment. For in vitro administration of tamoxifen, isolated islets were incubated for 24 hours with […] tamoxifen (dissolved in ethanol) prior to transfer to complete media for 24 hours to recover. Islets were then synchronized with forskolin prior to insulin secretion assays as described above.
On the technique in general: ELISA stands for enzyme-linked immunosorbent assay.

A further test has as its system myotubes and MEFs. The test can be described thus: Core clock gene expression after chemical hypoxia mimetic (qPCR). Conditions: hypoxia induced with chemical mimetic CoCl2. The class given is cell-based, mouse. The method, then:
Total RNA was extracted from C2C12 and MEF cell pellets and snap-frozen mouse skeletal muscle tissue using Tri-Reagent (Molecular Research Center, Inc). For muscle tissue samples, tissue was homogenized using a TissueLyser II apparatus (Qiagen). cDNA was synthesized using the High Capacity cDNA Reverse Transcription kit (Applied Biosystems). Real-time PCR was performed and analyzed using a CFX384 (Biorad). PCR conditions were: 10 min at 95° C., then 35 cycles of 10 s at 95° C., 15 s at 60° C. Relative expression levels (normalized to 18S rRNA (C2C12 and MEF) or β-actin (skeletal muscle)) were determined using the comparative CT method.

The test system of the next test is C2C12 myotubes. Conditions: 62.5 uM DMOG; DMSO-treated controls 22 hrs, p<0.05.

Structures can show the parent of a compound that is named as a salt.

Description for C2C12 myotubes: For PERIOD2:LUCIFERASE (PER2:LUC) reporter assays, C2C12 myoblast cells were first infected with PER2:LUC-expressing lentivirus (gift of A. Liu, University of Memphis) (18454201) and maintained in DMEM that included 10% FBS and 2.5 μg/ml blastocidin to select for stable Per2-luc integration. Myoblasts were then differentiated for 5 days with 2% horse serum, and then synchronized in 50% horse serum for 2 hours.

Regarding ivermectin, the “glucose-dependent insulin secretion in the absence of BMAL1 (hit compound)” value (from here on “glucose-dependent insulin secretion”) in the test on Bmal1−/− Beta TC-6 cells is given as “stimulate glucose-dependent insulin secretion”. Also, the “glucose-stimulated insulin secretion in wild-type βTC-6 cells” value with wild-type βTC-6 cells [1] (acute or prolonged exposure, presence or absence of glucose) is given as “enhances glucose-stimulated insulin secretion”. Besides, the “effect on glucose-stimulated insulin secretion and calcium flux (validation of hits)” value in the test on wild-type βTC-6 cells [1] is “impact both glucose-stimulated insulin secretion and calcium flux”. The “calcium flux in wild-type βTC-6 cells” value in the test with wild-type βTC-6 cells [2] is “enhances glucose-stimulated insulin secretion and calcium flux”.

With `C[C@H](CCC(=O)O)C[C@H](C)C[C@H](C)C(=O)/C=C(\O)[C@H](C)C[C@H](C)C/C=C/[C@@H](C)[C@@H](O)[C@@H](C)[C@@H](O)C[C@@H]1CC[C@@](C)([C@H]2CC[C@@](C)([C@@H](C)O)O2)O1` [ionomycin], the “intracellular Ca2+” value in the test on Beta-TC6 cells was “raised intracellular Ca2+”. In test [3], the “insulin secretion in PdxCreER;Bmal1flx/flx islets in response to secretagogue” value is reported as “significantly reduced in mutants”. On to `CCCCC(CC)CNC(=N)NC(=N)NCCCCCCNC(=N)NC(=N)NCC(CC)CCCC` (stereo not drawn) [alexidine hydrochlodire], for which the “glucose-dependent insulin secretion” value in the test with Bmal1−/− Beta TC-6 cells is recorded as “stimulate glucose-dependent insulin secretion”. Further, the “effect on glucose-stimulated insulin secretion and calcium flux (validation of hits)” value in the test with wild-type βTC-6 cells [1] was “impact both glucose-stimulated insulin secretion and calcium flux”. Turning to `CNC1(C)C2CCC(C2)C1(C)C` (stereo not drawn) [mecamylamine hydrochloride], the “glucose-dependent insulin secretion” value with Bmal1−/− Beta TC-6 cells is reported as “stimulate glucose-dependent insulin secretion”. As to `C[N+](C)(C)CCOC(N)=O` [carbachol], the “glucose-dependent insulin secretion” value with Bmal1−/− Beta TC-6 cells is “stimulate glucose-dependent insulin secretion”. Moreover, the “insulin secretion in PdxCreER;Bmal1flx/flx islets in response to secretagogue” value in test [3] is reported as “restored insulin secretion”. As to `C[C@H]1CC[C@]2(NC1)O[C@H]1C[C@H]3[C@@H]4CC[C@H]5C[C@@H](O[C@@H]6O[C@H](CO)[C@H](O[C@@H]7O[C@H](CO)[C@@H](O)[C@H](O[C@@H]8OC[C@@H](O)[C@H](O)[C@H]8O)[C@H]7O[C@@H]7O[C@H](CO)[C@@H](O)[C@H](O)[C@H]7O)[C@H](O)[C@H]6O)CC[C@]5(C)[C@H]4CC[C@]3(C)[C@H]1[C@@H]2C` [tomatine], in the test on Bmal1−/− Beta TC-6 cells, the “glucose-dependent insulin secretion” value is “stimulate glucose-dependent insulin secretion”. Besides, the “effect on glucose-stimulated insulin secretion and calcium flux (validation of hits)” value in the test with wild-type βTC-6 cells [1] is “impact both glucose-stimulated insulin secretion and calcium flux”. For `[Cl][Co][Cl]` [CoCl2, cobalt chloride], the “expression of core clock genes” value in the test with myotubes and MEFs is listed as “increased expression of core clock genes”. With `COC(=O)CNC(=O)C(=O)OC` [DMOG, dimethyloxalyl glycine], the “period of PER2:LUC oscillations” value in the test with C2C12 myotubes came to 23 h. Turning to `CCCCCCCCCCCCCC(=O)O[C@@H]1[C@@H](C)[C@@]2(O)[C@@H](C=C(CO)C[C@]3(O)C(=O)C(C)=C[C@@H]23)[C@@H]2C(C)(C)[C@]12OC(C)=O` [PMA, phorbol 12-myristate 13-acetate], the “glucose-dependent insulin secretion” value in the test with Bmal1−/− Beta TC-6 cells is “rescues GSIS”. Further, the “insulin secretion in PdxCreER;Bmal1flx/flx islets in response to secretagogue” value in test [3] is listed as “restored insulin secretion”. Consider `Nc1ncnc2c1nc(Br)n2[C@@H]1O[C@@H]2COP(=O)(O)O[C@H]2[C@H]1O` [8-br-cAMP], for which, in test [3], the “insulin secretion in PdxCreER;Bmal1flx/flx islets in response to secretagogue” value is “secreted significantly less insulin than controls”.
